Columns and labels:
[1] = target: T1, Androgen receptor of prostate of rats (Rattus norvegicus, UniProt P15207); assay: Androgen receptor binding (displacement of tritiated product P); conditions: conclusion
T1 construct: The prostates were removed, weighed and homogenized at 0° C; from tissue; host or cells: rat prostate, 105,000 g supernatant (castrated male Sprague-Dawley rats)
T1 sequence (P15207 1-902): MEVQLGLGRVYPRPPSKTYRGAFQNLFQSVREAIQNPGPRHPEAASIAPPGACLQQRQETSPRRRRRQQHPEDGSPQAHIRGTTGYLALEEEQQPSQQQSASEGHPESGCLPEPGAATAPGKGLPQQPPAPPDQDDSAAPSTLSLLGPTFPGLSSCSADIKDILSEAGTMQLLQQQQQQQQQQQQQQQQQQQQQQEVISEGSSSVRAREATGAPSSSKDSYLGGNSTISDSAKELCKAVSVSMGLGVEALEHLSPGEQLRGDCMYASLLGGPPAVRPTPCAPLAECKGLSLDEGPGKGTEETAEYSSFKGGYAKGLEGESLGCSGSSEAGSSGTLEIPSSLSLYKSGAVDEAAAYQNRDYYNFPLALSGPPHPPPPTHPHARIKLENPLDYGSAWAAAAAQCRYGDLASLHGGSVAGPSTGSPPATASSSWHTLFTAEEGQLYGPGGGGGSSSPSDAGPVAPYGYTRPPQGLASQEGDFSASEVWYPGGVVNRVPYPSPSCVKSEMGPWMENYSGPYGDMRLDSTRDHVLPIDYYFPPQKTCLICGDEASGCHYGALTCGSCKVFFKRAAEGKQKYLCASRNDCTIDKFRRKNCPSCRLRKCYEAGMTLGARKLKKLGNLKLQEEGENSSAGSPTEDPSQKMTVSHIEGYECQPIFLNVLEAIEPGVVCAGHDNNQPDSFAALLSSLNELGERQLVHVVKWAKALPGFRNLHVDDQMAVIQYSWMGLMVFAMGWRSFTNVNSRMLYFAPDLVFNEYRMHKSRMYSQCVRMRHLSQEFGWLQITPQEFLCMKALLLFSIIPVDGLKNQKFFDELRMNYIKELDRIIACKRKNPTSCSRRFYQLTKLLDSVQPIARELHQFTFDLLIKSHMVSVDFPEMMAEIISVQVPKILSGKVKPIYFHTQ
Experimental: B. Androgen receptor of prostate of rats
Male Sprague-Dawley EPOS rats weighing of 160 to 200 g were castrated and 24 hours later, the animals were killed. The prostates were removed, weighed and homogenized at 0° C. with a polytetrafluoroethylene-glass Potter with a buffered TS solution (Tris, 10 mM, 0.25M Saccharose, HCl-pH of 7.4) using 1 g of tissue per 5 ml of TS. The homogenate was then ultracentrifuged at 105,000 g for 60 […] (T) of product P or 17α-methyl-Δ^4,9,11 -estratriene-17β-ol-3-one in the presence of increasing concentration (0-1,000×10^-9 M) of either cold P, cold testosterone or the test compound. The concentration of tied tritiated (B) was measured for each incubate by the technique of adsorption on carbon-dextran.
(§1) The calculation of the relative affinity of […] (ARL) was identical for all of the above receptor tests. One traced the following two curves: the percentage of tied tritiated hormone B/T as a function of the logarithm of the cold hormone concentration and B/T as a function of the logarithm of the concentration of the cold test product. One determined the line of the equation. [formula]
(§2) The intersection of the I50 line and the curves permits one to determine the concentrations of the cold hormone of the reference (CH) and the cold test compound (CX) which inhibit by 50% the tieing of tritiated hormone with the receptor. The relative affinity of tieing (ARL) of the test product was determined by the equation: [formula]

[2] = target: T2, Progestogen receptor of the uterus of rabbits (Oryctolagus cuniculus, UniProt P06186); assay: Progestogen receptor binding (displacement of tritiated product R); design: species or system rabbit; conditions: conclusion
T2 construct: The uterus was removed, weighed and homogenized at 0° C; from tissue; host or cells: rabbit uterus, 105,000 g supernatant (estradiol-primed immature rabbits)
T2 sequence (P06186 1-930): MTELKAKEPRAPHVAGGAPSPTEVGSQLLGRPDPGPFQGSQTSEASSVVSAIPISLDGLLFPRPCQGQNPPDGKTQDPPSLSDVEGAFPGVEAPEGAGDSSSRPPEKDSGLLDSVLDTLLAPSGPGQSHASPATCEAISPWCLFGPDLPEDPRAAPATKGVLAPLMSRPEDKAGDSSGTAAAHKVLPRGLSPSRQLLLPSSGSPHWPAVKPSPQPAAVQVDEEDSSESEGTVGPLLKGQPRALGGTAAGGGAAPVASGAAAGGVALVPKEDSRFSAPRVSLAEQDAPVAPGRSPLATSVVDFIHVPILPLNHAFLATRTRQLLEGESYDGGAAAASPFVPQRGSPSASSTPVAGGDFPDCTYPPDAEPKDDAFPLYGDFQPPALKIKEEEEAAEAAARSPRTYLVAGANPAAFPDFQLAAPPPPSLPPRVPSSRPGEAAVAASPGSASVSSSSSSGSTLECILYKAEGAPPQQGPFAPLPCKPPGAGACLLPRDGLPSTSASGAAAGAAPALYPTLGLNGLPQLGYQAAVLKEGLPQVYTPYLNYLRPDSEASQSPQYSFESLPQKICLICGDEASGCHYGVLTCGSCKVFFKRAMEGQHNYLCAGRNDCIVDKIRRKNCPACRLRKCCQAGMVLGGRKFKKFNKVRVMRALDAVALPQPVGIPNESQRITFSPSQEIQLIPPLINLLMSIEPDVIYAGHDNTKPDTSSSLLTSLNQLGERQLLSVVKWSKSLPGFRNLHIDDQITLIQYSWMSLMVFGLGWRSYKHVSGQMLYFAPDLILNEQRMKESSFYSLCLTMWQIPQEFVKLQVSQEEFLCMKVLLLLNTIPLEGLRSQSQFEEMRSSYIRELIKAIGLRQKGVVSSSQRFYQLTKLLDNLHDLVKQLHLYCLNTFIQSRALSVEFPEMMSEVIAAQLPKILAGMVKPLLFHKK
Experimental: C. Progestogen receptor of the uterus of rabbits
Immature rabbits weighing about 1 kg received a cutaneous application of 25 μg of estradiol and the animals were killed 5 days later. The uterus was removed, weighed and homogenized at 0° C. with a polytetrafluoroethylene-glass Potter, in a buffered TS solution [Tris 10. mM, 0.25M of saccharose, HCl-pH of 7.4] with 1 g of tissue per 50 ml of TS. […] The concentration of tied tritiated R (B) was then measured for each incubate by the technique of adsoprtion on carbon-dextran.
as §1, §2

[3] = tested on: thymocytes of surrenalectomized rats; assay: Antiglucocorticoidal activity, incorporation of tritiated uridine in thymocytes; type: cell-based; conditions: for opposition to the effect of dexamethasone on tritiated uridine incorporation (in words): with 5×10^-8 M dexamethasone
Experimental: III. Antiglucocorticoidal Activity
The test used was that of Dausse et al [Molecular Pharmacology, Vol. 13 (1977), p. 948-955] entitled "The relationship between glucocorticoid structure and effects upon thymocytes" for […] thymocytes. The thymocytes of surrenalectomized rats were incubated at 37° C. for 3 hours in a nutritive medium containing 5×10^-8 M of dexamethasone in the presence or absence of the test compound at different concentrations. Tritiated uridine was added and incubation was continued for one hour. The incubates were cooled and treated with a 5% trifluoroacetic acid solution and the mixture was filtered with Whatman GF/A paper. The filter was washed 3 times with a 5% trifluoroacetic acid solution and retained radioactivity on the filter was determined.

CC#C[C@]1(O)CC[C@H]2[C@@H]3CCc4cc(O)ccc4[C@H]3[C@@H](c3ccc(N(C)C)cc3)C[C@@]21C [Example 2, 11β-(4-dimethylaminophenyl)-17α-(prop-1-ynyl)-Δ^1,3,5(10) -estratriene-3,17β-diol]
affinity for androgen receptors (in words) [1]: slightly moderate affinity
affinity for progestogen receptors (in words) [2]: very remarkable affinity
opposition to the effect of dexamethasone on tritiated uridine incorporation (in words) [3]: opposed this effect

C#CC[C@]1(O)CC[C@H]2[C@@H]3CCC4=CC(=O)CCC4=C3[C@@H](c3ccc(N(C)C)cc3)C[C@@]21C [Example 31, 11β-[4-(N,N-dimethylamino)-phenyl]-17α-(prop-2-ynyl)-Δ^4,9-estradiene-17β-ol-3-one]
affinity for androgen receptors (in words) [1]: slightly moderate affinity
affinity for progestogen receptors (in words) [2]: very remarkable affinity
inhibition at 1 µM ([3]; Rattus norvegicus, Thymocyte, second table, 5 × 10^-8 M dexamethasone + test product 10^-6 M, read-out: % of inhibition of effect of Dexamethasone): 99%
inhibition at 0.1 µM ([3]; Rattus norvegicus, Thymocyte, second table, 5 × 10^-8 M dexamethasone + test product 10^-7 M, read-out: % of inhibition of effect of Dexamethasone): 60%
inhibition at 0.01 µM ([3]; Rattus norvegicus, Thymocyte, second table, 5 × 10^-8 M dexamethasone + test product 10^-8 M, read-out: % of inhibition of effect of Dexamethasone): 28%
opposition to the effect of dexamethasone on tritiated uridine incorporation (in words) [3]: opposed this effect

From patent US5043332A, “Novel 11β-substituted -19-nor-steriods” (priority 1981, dated 1991)
